Target: Cyclin-dependent kinase 2/cyclin E1 (Homo sapiens, UniProt P24941)
Experiment: Inhibition of CDK2/Cyclin E1 (unknown origin) pre-incubated for 10 mins followed by ATP/substrate addition and measured after 60 mins by ADP-Glo assay
Assay type: protein-complex assay
Conditions: not given

Row | Structure (SMILES) | IC50 [nM]
1 | COc1cnc(NC2CCN(S(C)(=O)=O)CC2)nc1-c1cnc(OC(C)C)c(F)c1 | 341
2 | CC(C)n1cc(-c2nc(NC3CCN(C(=O)OC(C)(C)C)CC3)ncc2F)ccc1=O | 139
3 | CC(C)n1cc(-c2nc(NC3CCN(S(=O)(=O)C(C)C)CC3)ncc2F)cc(F)c1=O | 8
4 | CC(C)Oc1ccc(-c2nc(NC3CCN(S(C)(=O)=O)CC3)ncc2F)cn1 | 93
5 | CC(=O)N1CCC(Nc2ncc(F)c(-c3ccc(=O)n(C(C)C)c3)n2)CC1 | 63
6 | CC(C)n1cc(-c2nc(NC3CCN(S(C)(=O)=O)CC3)ncc2F)cc(F)c1=O | 4
7 | Cc1cc(-c2nc(NC3CCN(S(C)(=O)=O)CC3)ncc2F)cn(C(C)C)c1=O | 222
8 | COCCS(=O)(=O)N1CCC(Nc2ncc(F)c(-c3cc(F)c(=O)n(C(C)C)c3)n2)CC1 | 7
9 | CC(C)n1cc(-c2nc(NC3CCN(S(=O)(=O)C4CC4)CC3)ncc2F)cc(F)c1=O | 5
10 | COCCS(=O)(=O)N1CCC(Nc2ncc(F)c(-c3ccc(=O)n(C(C)C)c3)n2)CC1 | 10
11 | Cn1cc(-c2nc(NC3CCN(S(C)(=O)=O)CC3)ncc2F)cc(F)c1=O | 70
12 | CCCS(=O)(=O)N1CCC(Nc2ncc(F)c(-c3ccc(=O)n(C(C)C)c3)n2)CC1 | 7
13 | Cc1cc(-c2nc(NC3CCN(S(C)(=O)=O)CC3)ncc2F)cnc1OC(C)C | 166
14 | CC(C)n1cc(-c2nc(NC3CCN(S(C)(=O)=O)CC3)ncc2F)ccc1=O | 7
15 | CC(C)Oc1ncc(-c2ccnc(NC3CCN(S(C)(=O)=O)CC3)n2)cc1F | 810
16 | CCCS(=O)(=O)N1CCC(Nc2ncc(F)c(-c3cc(F)c(=O)n(C(C)C)c3)n2)CC1 | 5
17 | Cc1nc(OC(C)C)ccc1-c1nc(NC2CCN(S(C)(=O)=O)CC2)ncc1F | 297

Row | Structure (SMILES) | IC50 [nM]
18 | CCn1cc(-c2nc(NC3CCN(S(C)(=O)=O)CC3)ncc2F)cc(F)c1=O | 23
19 | CCC(C)n1cc(-c2nc(NC3CCN(S(=O)(=O)CCOC)CC3)ncc2F)cc(F)c1=O (stereo not drawn) | 5
20 | CC(C)Oc1ncc(-c2nc(NC3CCN(S(C)(=O)=O)CC3)ncc2F)cc1F | 73
21 | CCC(C)n1cc(-c2nc(NC3CCN(S(C)(=O)=O)CC3)ncc2F)cc(F)c1=O (stereo not drawn) | 3
22 | CCCS(=O)(=O)N1CCC(Nc2ncc(F)c(-c3cnc(OC(C)C)c(F)c3)n2)CC1 | 130
23 | CCS(=O)(=O)N1CCC(Nc2ncc(F)c(-c3cc(F)c(=O)n(C(C)C)c3)n2)CC1 | 6
24 | CC(C)n1cc(-c2nc(NC3CCNCC3)ncc2F)ccc1=O | > 1000
25 | CC(C)Cn1cc(-c2nc(NC3CCN(S(C)(=O)=O)CC3)ncc2F)cc(F)c1=O | 12
26 | COCCS(=O)(=O)N1CCC(Nc2ncc(F)c(-c3cnc(OC(C)C)c(F)c3)n2)CC1 | 124
27 | CC(C)Oc1ncc(-c2nc(NC3CCN(S(C)(=O)=O)CC3)ncc2F)cc1C(=O)O | 656
28 | CC(C)=CCn1cc(-c2nc(NC3CCN(S(C)(=O)=O)CC3)ncc2F)cc(F)c1=O | 15
29 | CC(C)Oc1ncc(-c2nc(NC3CCN(S(=O)(=O)C(C)C)CC3)ncc2F)cc1F | 216
30 | CC(C)n1cc(-c2nc(NC3CCN(S(=O)(=O)C(C)C)CC3)ncc2F)ccc1=O | 16
31 | CCS(=O)(=O)N1CCC(Nc2ncc(F)c(-c3cnc(OC(C)C)c(F)c3)n2)CC1 | 113
32 | CC(C)n1cc(-c2nc(NC3CCN(S(=O)(=O)C(F)(F)F)CC3)ncc2F)ccc1=O | 42
33 | CCC(C)n1cc(-c2nc(NC3CCN(S(=O)(=O)CC)CC3)ncc2F)cc(F)c1=O (stereo not drawn) | 7
34 | CCCCn1cc(-c2nc(NC3CCN(S(C)(=O)=O)CC3)ncc2F)cc(F)c1=O | 13

System: OVCAR-3
Experiment: Induction of cell cycle arrest in human OVCAR-3 cells assessed as accumulation of cells at G2 phase at 2 uM incubated for 24 hrs by flow cytometry analysis (reference value: 21.77%)
Assay type: functional
Conditions: not given

Row | Structure (SMILES) | Activity [%]
35 | FC(F)Oc1cc(Nc2cnc3cnn(CC4CCOCC4)c3n2)n[nH]1 [CERTOCICLIB] | 2.64

System: OVCAR-3
Experiment: Induction of cell cycle arrest in human OVCAR-3 cells assessed as accumulation of cells at G1 phase at 2 uM incubated for 24 hrs by flow cytometry analysis (reference value: 67.73%)
Assay type: functional
Conditions: not given

Row | Structure (SMILES) | Activity [%]
36 | FC(F)Oc1cc(Nc2cnc3cnn(CC4CCOCC4)c3n2)n[nH]1 [CERTOCICLIB] | 95.66

System: not listed separately
Experiment: Antiproliferative activity against Palbociclib-resistance human MCF7 cells assessed as cell growth inhibition
Assay type: functional, cell-based, Palbociclib-resistant MCF7 cell
Conditions: not given

Row | Structure (SMILES) | IC50 [nM]
37 | CC(=O)c1c(C)c2cnc(Nc3ccc(N4CCNCC4)cn3)nc2n(C2CCCC2)c1=O [PALBOCICLIB] | 13800

System: OVCAR-3
Experiment: Induction of apoptosis in human OVCAR-3 cells assessed as necrotic cells at 2 uM incubated for 24 hrs by Annexin V-FITC/PI staining based flow cytometry analysis (reference value: 0.87%)
Assay type: functional
Conditions: not given

Row | Structure (SMILES) | Activity [%]
38 | FC(F)Oc1cc(Nc2cnc3cnn(CC4CCOCC4)c3n2)n[nH]1 [CERTOCICLIB] | 3.77

System: MCF7
Experiment: Antiproliferative activity against wild type human MCF7 cells assessed as cell growth inhibition
Assay type: functional, cell-based
Conditions: not given

Row | Structure (SMILES) | IC50 [nM]
39 | CC(=O)c1c(C)c2cnc(Nc3ccc(N4CCNCC4)cn3)nc2n(C2CCCC2)c1=O [PALBOCICLIB] | 80

System: OVCAR-3
Experiment: Induction of apoptosis in human OVCAR-3 cells assessed as late apoptotic cells at 2 uM incubated for 24 hrs by Annexin V-FITC/PI staining based flow cytometry analysis (reference value: 2.67%)
Assay type: functional
Conditions: not given

Row | Structure (SMILES) | Activity [%]
40 | FC(F)Oc1cc(Nc2cnc3cnn(CC4CCOCC4)c3n2)n[nH]1 [CERTOCICLIB] | 12.5

System: OVCAR-3
Experiment: Induction of apoptosis in human OVCAR-3 cells assessed as early apoptotic cells at 2 uM incubated for 24 hrs by Annexin V-FITC/PI staining based flow cytometry analysis (reference value: 1.25%)
Assay type: functional
Conditions: not given

Row | Structure (SMILES) | Activity [%]
41 | FC(F)Oc1cc(Nc2cnc3cnn(CC4CCOCC4)c3n2)n[nH]1 [CERTOCICLIB] | 4.47

System: OVCAR-3
Experiment: Induction of apoptosis in human OVCAR-3 cells assessed as viable cells at 2 uM incubated for 24 hrs by Annexin V-FITC/PI staining based flow cytometry analysis (reference value: 95.2%)
Assay type: functional
Conditions: read-out: Activity

Row | Structure (SMILES) | viability at 2 µM [%]
42 | FC(F)Oc1cc(Nc2cnc3cnn(CC4CCOCC4)c3n2)n[nH]1 [CERTOCICLIB] | 79.3

System: not listed separately
Experiment: Antiproliferative activity against CCNE1-amplified human OVCAR-3 cells assessed as cell growth inhibition incubated for 3 days by CCK8 assay
Assay type: functional, cell-based
Conditions: OVCAR-3, 72 h

Row | Structure (SMILES) | IC50 [nM]
43 | FC(F)Oc1cc(Nc2cnc3cnn(CC4CCOCC4)c3n2)n[nH]1 [CERTOCICLIB] | 2310

— ChEMBL document CHEMBL6177950, “Discovery of potent and selective CDK2 inhibitors with high safety and favorable bioavailability for the treatment of cancer” (Eur J Med Chem, 2025)
